Consider two compounds from patent US20120004233A1, “TRICYCLIC COMPOUNDS AS ANTAGONISTS OF PROSTAGLANDIN D2 RECEPTORS” (AMIRA PHARMACEUTICALS, INC, priority 2009, published 2012).

The target in experiment [1] is T1, human DP2 receptor (Homo sapiens, UniProt Q9Y5Y4).
T1 construct: expressed in transfected cells
T1 sequence (Q9Y5Y4 1-395): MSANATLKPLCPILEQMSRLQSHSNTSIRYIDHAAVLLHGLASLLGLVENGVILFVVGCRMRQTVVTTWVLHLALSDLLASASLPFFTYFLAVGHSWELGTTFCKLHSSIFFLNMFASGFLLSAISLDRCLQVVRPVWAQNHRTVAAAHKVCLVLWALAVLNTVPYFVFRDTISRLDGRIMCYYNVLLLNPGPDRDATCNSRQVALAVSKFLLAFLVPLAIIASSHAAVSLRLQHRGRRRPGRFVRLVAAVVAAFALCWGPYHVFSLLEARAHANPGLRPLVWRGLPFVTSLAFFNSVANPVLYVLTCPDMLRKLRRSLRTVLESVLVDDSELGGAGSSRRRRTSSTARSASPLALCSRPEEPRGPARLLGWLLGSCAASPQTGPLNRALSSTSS
Description: DP2/CRTH2 radioligand binding assay using [3H]PGD2. To be noted: membranes of HEK293 cells expressing recombinant human DP2. How it is done:
The ability of a compound to bind to the human DP2 receptor is assessed via a radioligand binding assay using [^3H]PGD2. HEK293 cells stably expressing recombinant human DP2 are resuspended in 10 mM Hepes, 7.4 containing 1 mM DTT, lysed and centrifuged at 75,000×g to pellet the membranes. The membranes are resuspended in 10 mM Hepes, 7.4 containing 1 mM DTT and 10% glycerol to approximately 5 mg protein/ml. Membranes (2-10 μg protein/well) are incubated in 96-well plates with 1 nM [^3H]PGD2 and test compound in Assay Buffer (50 mM Hepes, 10 mM MnCl2, 1 mM EDTA, plus or minus 0.2% human serum albumin, pH 7.4) for 60 minutes at room temperature. The reactions are terminated by rapid filtration through Whatman GF/C glass fibre filter plates. The filter plates were pre-soaked in 0.33% polythylenimine for 30 minutes at room temperature then washed in Wash Buffer (50 mM Hepes, 0.5 M NaCl pH 7.4) prior to harvesting. After harvesting, the filter plates are washed 3 times with 1 ml cold Wash Buffer then dried. Scintillant is then added to the plates and the radioactivity retained on the filters is determined on a Packard TopCount (Perkin Elmer). Specific binding is determined as total radioactive binding minus non-specific binding in the presence of 10 μM PGD2. IC50s were determined using GraphPad prism analysis of drug titration curves.

Experiment [2] addresses T2, human DP1 receptor (Homo sapiens, UniProt Q13258).
T2 construct: tissue Biological Specialty Corporation; host or cells: human platelets, membrane preparation
T2 sequence (Q13258 1-359): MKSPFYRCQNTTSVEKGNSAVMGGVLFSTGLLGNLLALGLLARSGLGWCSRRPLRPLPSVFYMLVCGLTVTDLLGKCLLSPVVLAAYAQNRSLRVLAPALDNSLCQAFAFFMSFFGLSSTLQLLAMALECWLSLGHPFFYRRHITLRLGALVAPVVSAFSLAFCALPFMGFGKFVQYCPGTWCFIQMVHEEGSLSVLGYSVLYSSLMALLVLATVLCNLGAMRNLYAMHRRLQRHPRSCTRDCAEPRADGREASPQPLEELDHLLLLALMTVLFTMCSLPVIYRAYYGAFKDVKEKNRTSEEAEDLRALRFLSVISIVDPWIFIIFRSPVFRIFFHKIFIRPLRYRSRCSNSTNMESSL
As to the kind of experiment: DP1 radioligand membrane binding assay using [3H]BWA868C. To be noted: human platelet membranes; read-out: hDP1. As to the method:
The ability of a compound to bind to the human DP1 receptor is evaluated via a radioligand membrane binding assay using the DP1 selective synthetic ligand [^3H]BWA868C. Packed human platelets (Biological Specialty Corporation), are resuspended in 6 volumes of Hepes/HBSS buffer (10 mM Hepes, 1 mM DTT in Hanks Balanced Salt Solution (HBSS)), lysed and centrifuged at 75,000×g to pellet the membranes. Membranes are resuspended in Hepes/HBSS buffer to approximately 12 mg protein/ml. Membranes (20 μg protein/well) are incubated in 96-well plates with 2 nM [^3H]BWA868C and test compound in Assay Buffer (50 mM Hepes, 10 mM MnCl2, 1 mM EDTA, plus or minus 0.2% human serum albumin, pH 7.4) for 60 minutes at room temperature. The reactions are terminated by rapid filtration through Whatman GF/C glass fibre filter plates. The filter plates are pre-soaked in 0.33% polethylenimine for 30 minutes at room temperature then washed in Wash Buffer (50 mM Hepes, 0.5 M NaCl pH 7.4) prior to harvesting. […] Scintillant is then added to the plates and the radioactivity retained on the filters is determined on a Packard TopCount (Perkin Elmer). Specific binding is determined as total radioactive binding minus non-specific binding in the presence of 10 μM BW A868C. IC50 values are determined using GraphPad prism analysis of drug titration curves.

The mark [3] stands for this setting: plus 0.2% human serum albumin, read-out: hDP2 μM (+HSA).
Where [4] appears, read: without human serum albumin, read-out: hDP2.

Where two headings read alike, the source gives them in different places.

With `CN(C1CCc2c(CC(=O)O)c3ccccn3c2C1)S(=O)(=O)c1ccc(F)cc1` (stereo not drawn) [Compound 1-1, {3-[(4-Fluoro-benzenesulfonyl)-methyl-amino]-1,2,3,4-tetrahydro-pyrido[1,2-a]indol-10-yl}-acetic acid], the IC50 in experiment [1] (setting [3]) is below 300 nM; in experiment [1] (setting [4]), below 300 nM; in experiment [2], above 1000 nM.
For `CN(C1CCc2c(c3ccccn3c2CC(=O)O)C1)S(=O)(=O)c1ccc(F)cc1` (stereo not drawn) [Compound 2-1, {9-[(4-Fluoro-benzenesulfonyl)-methyl-amino]-7,8,9,10-tetrahydro-pyrido[2,1-a]isoindol-6-yl}-acetic acid], the IC50 in experiment [1] (setting [3]) was below 300 nM; in experiment [1] (setting [4]), below 300 nM; in experiment [2] it was above 1000 nM.
